Data published in ChEMBL document CHEMBL5550160, “Leveraging a rationally designed veliparib-based anilide eliciting anti-leukemic effects for the design of pH-responsive polymer nanoformulation” (Eur J Med Chem, 2024).

Columns and labels:
[1] = tested on: HH; assay: cells; type: functional, cell-based; settings: Homo sapiens
Description: Antiproliferative activity against human HH cells assessed as inhibition of cell growth by MTT assay

[2] = molecular target: Histone deacetylase 1 (Homo sapiens, UniProt Q13547); assay: Inhibition of HDAC1 (unknown origin) using p53 residues 379 to 382 [RHKK(Ac)] as fluorogenic substrate assessed as residual activity at 1.52 x 10^-9M (reference value: 98.06%); settings: dose 1.52 10^-9M
[3] = molecular target: T1, Histone deacetylase 2 (Homo sapiens, UniProt Q92769); assay: Inhibition of HDAC2 (unknown origin) assessed as residual activity at 1.37 x 10^-8M (reference value: 99.81%); settings: dose 1.37 10^-8M
[4] = molecular target: T1, Histone deacetylase 2; assay: Inhibition of HDAC2 (unknown origin) assessed as residual activity at 1.52 x 10^-9M (reference value: 99.81%); settings: dose 1.52 10^-9M
[5] = molecular target: T2, Histone deacetylase 8 (Homo sapiens) (UniProt Q9BY41); assay: Inhibition of HDAC8 (unknown origin) assessed as residual activity at 3.33 x 10^-6M (reference value: 100%); settings: dose 3.33 10^-6M
T2 sequence (whole entry): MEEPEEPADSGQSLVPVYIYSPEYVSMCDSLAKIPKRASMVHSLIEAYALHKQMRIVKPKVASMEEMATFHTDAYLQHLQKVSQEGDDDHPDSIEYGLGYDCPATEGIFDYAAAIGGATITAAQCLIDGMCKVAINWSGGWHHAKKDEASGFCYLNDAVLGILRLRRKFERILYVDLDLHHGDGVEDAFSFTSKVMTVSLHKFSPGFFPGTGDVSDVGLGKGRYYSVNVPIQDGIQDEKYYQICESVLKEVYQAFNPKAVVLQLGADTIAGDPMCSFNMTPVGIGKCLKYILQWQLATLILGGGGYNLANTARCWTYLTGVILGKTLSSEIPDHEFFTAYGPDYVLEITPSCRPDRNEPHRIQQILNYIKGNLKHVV

[6] = molecular target: T3, Polyamine deacetylase HDAC10 (Homo sapiens) (UniProt Q969S8); assay: Inhibition of HDAC10 (unknown origin) assessed as residual activity at 1.37 x 10^-8M (reference value: 101.54%); settings: dose 1.37 10^-8M
T3 sequence (whole entry): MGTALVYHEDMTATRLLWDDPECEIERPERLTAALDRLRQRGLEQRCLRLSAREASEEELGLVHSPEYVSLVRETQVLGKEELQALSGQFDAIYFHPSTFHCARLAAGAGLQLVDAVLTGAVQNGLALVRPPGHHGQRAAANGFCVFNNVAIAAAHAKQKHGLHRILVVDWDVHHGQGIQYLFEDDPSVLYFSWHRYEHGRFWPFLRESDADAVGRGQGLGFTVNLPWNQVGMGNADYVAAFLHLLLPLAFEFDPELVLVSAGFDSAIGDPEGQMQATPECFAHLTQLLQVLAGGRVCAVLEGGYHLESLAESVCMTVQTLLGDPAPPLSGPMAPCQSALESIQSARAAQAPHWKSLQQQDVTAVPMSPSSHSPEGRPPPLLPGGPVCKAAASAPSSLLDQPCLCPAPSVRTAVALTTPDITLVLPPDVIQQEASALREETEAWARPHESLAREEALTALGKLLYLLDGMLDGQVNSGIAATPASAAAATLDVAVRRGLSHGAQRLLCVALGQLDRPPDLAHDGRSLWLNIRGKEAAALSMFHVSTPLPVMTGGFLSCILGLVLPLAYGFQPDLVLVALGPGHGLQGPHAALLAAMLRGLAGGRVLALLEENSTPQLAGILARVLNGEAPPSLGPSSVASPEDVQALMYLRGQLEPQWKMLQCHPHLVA

T1 sequence (Q92769 whole entry): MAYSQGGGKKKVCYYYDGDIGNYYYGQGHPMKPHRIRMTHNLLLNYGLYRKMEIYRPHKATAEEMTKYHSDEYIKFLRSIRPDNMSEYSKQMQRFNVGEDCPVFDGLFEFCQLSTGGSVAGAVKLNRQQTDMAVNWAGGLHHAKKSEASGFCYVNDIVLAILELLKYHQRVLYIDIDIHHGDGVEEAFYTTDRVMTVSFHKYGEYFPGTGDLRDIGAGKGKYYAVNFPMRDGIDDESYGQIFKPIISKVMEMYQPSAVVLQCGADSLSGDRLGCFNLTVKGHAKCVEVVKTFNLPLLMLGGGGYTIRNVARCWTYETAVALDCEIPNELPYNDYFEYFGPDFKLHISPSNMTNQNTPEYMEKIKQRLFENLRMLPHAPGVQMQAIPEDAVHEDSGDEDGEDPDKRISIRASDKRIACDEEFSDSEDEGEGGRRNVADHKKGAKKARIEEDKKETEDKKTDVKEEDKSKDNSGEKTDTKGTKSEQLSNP
Histone deacetylase 1, sequence (Q13547 whole entry, the tested form may be a part): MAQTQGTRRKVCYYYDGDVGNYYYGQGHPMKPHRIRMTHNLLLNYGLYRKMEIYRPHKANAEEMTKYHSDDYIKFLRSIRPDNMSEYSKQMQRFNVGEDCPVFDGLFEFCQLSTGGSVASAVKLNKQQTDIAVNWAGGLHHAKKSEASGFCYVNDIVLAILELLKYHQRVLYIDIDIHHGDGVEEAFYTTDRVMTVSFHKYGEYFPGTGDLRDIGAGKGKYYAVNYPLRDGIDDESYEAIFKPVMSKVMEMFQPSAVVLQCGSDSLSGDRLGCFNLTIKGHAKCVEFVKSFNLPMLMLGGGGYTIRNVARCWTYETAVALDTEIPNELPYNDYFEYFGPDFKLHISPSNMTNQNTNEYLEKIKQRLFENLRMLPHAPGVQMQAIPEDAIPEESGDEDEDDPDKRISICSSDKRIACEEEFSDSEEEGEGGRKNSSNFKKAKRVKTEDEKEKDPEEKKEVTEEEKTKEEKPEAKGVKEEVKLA

- IC50 [1]: 1.01 µM
- Activity [2]: 95.5%
- Activity [3]: 86.2%
- Activity [4]: 98.2%
- Activity [5]: 96.9%
- Activity [6]: 97.7%
SMILES: NC(=O)c1cccc2[nH]c(-c3ccc(NCc4ccc(C(=O)Nc5ccccc5N)cc4)cc3)nc12
